The results in this text go back to ChEMBL document CHEMBL1201862, “PubChem BioAssay data set” (2004).

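Five compound concentrations were applied to cells in 96-well plates for 48 hours; endpoints were derived by simple linear interpolation of the resulting dose-response curve. At the GI50, growth is halved.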 Calls of active or inactive are those of the source. Rule as the data show it: active = GI50 up to about 1.1 µM and inactive = higher.

Common to all, as to test: NCI anticancer screen, dose series, 48 h
Assay [1] concerns 786-0.
Assay [2] relates to CCRF-CEM.
Assay [3] has as its system DU-145.
Assay [4] concerns HOP-92.
The test system of assay [5] is HT-29.
Assay [6] relates to Hs-578T.
The test system of assay [7] is K562.
For assay [8], the system named is MDA-MB-231.
The test system of assay [9] is MDA-MB-435.
Assay [10] deals with SF-295.
Assay [11] relates to SN12C.
The test system of assay [12] is SNB-19.
For assay [13], the system named is T47D.
Assay [14] concerns U-251.
For assay [15], the system named is UACC-62.
The test system of assay [16] is SNB-75.
Assay [17] relates to BT-549.

For `O=C(O)c1nn(-c2ccccc2)nc1-c1nn(-c2ccccc2)nc1C(=O)O`, the GI50 in assay [1], in assay [2], in assay [3], in assay [4], in [5] and in [6] was > 100 µM (inactive) in each case. Also, the GI50 in assay [7], in assay [8], in [9], in assay [10], in assay [11] and in assay [12] was > 100 µM (inactive) throughout. Moreover, the GI50 in assay [13], in assay [14] and in [15] was > 100 µM (inactive) each time.

For `C[N+](C)(N)c1nc(N)c(C#N)c(C#N)c1C#N`, the GI50 in assay [2] was > 10 µM (inactive); in [3] it was > 10 µM (inactive); in [5] it was > 10 µM (inactive); in assay [6], > 10 µM (inactive); in [7] it was 7.01 µM (inactive); in [8], > 10 µM (inactive). Further, the GI50 in assay [9], in assay [10], in assay [11], in [12], in assay [16] and in assay [13] was > 10 µM (inactive) each time. The GI50 in assay [14] and in assay [15] was > 10 µM (inactive) each time.

For the compound `COc1ccc(C(c2cc(OC)c(OC)c(OC)c2)N2C(=O)CCC2C(=O)O)cc1` (stereo unspecified), the GI50 in [1] is 73.1 µM (inactive); in [2], 38.8 µM (inactive); in assay [3], > 100 µM (inactive); in assay [4] it was > 100 µM (inactive); in assay [5], 35.6 µM (inactive); in assay [6], 62.1 µM (inactive). The GI50 was 43.8 µM (inactive) in assay [7]; > 100 µM (inactive) in [8]; 21.8 µM (inactive) in [9]; 24.3 µM (inactive) in assay [10]; > 100 µM (inactive) in [11]; 44.9 µM (inactive) in [12]. In addition, the GI50 in assay [16] was 59 µM (inactive); in assay [13], 47.2 µM (inactive); in assay [14], 38.3 µM (inactive); in assay [15], 51.3 µM (inactive).

Take `CCC(=O)ONC(=O)Cn1ccc([N+](=O)[O-])n1`: the GI50 in assay [1], in [2], in [3], in assay [4], in assay [5] and in [6] was > 100 µM (inactive) throughout. Also, the GI50 in assay [7], in assay [8], in assay [9], in [10], in assay [11] and in assay [12] was > 100 µM (inactive) in each case. In addition, the GI50 in assay [16] and in [15] was > 100 µM (inactive) in each case.

Turning to `NC(=O)CC(/N=C1\C(=O)OC(C(O)CO)\C1=N/C(CC(N)=O)C(=O)O)C(=O)O` (stereo unspecified), the GI50 in [1], in assay [2], in [3], in assay [4], in assay [5] and in assay [6] was > 100 µM (inactive) throughout. The GI50 in [7], in assay [8], in [9], in [10], in [11] and in assay [12] was > 100 µM (inactive) each time. In addition, the GI50 in assay [16], in assay [13], in assay [14] and in assay [15] was > 100 µM (inactive) in each case.

Turning to `CC1CN=C(N(C(=O)Nc2ccc(Cl)c(Cl)c2)c2ccccc2)S1` (stereo unspecified), the GI50 in assay [1] is 43.4 µM (inactive); in assay [2], 31.9 µM (inactive); in assay [3], 91.8 µM (inactive); in assay [4], 38.9 µM (inactive); in [5] it was 34.8 µM (inactive); in [6], > 100 µM (inactive). The GI50 was > 10 µM (inactive) in [7]; > 100 µM (inactive) in assay [8]; 75.7 µM (inactive) in assay [10]; 33.6 µM (inactive) in assay [11]; > 100 µM (inactive) in assay [12]; 56.2 µM (inactive) in assay [16]. For the same compound, the GI50 in assay [13] is 20.2 µM (inactive); in assay [14] it was 53.5 µM (inactive).

`Cc1c2c(n(CCc3ccccc3)c1C)N(C)N=C(C#N)S2(=O)=O`: the GI50 was > 100 µM (inactive) in assay [1]; > 100 µM (inactive) in assay [17]; > 100 µM (inactive) in [3]; > 100 µM (inactive) in [5]; > 10 µM (inactive) in assay [7]; > 100 µM (inactive) in [8]. For the same compound, the GI50 in assay [9], in assay [10], in assay [11], in [12], in [16] and in assay [13] was > 100 µM (inactive) throughout. Also, the GI50 in [14] and in assay [15] was > 100 µM (inactive) each time.

Take `CC(=O)NC(C)(C)C1CC=C(C)CC1` (stereo unspecified): the GI50 in [1], in assay [17], in [2], in assay [3], in assay [5] and in assay [6] was > 100 µM (inactive) in each case. For the same compound, the GI50 in [7], in assay [8], in assay [9], in assay [10], in assay [11] and in assay [12] was > 100 µM (inactive) each time. Besides, the GI50 in [16], in assay [14] and in assay [15] was > 100 µM (inactive) throughout.

Regarding `CC1(C)N=C(C2CCCN2C(=O)OCc2ccccc2)OC1=O` (stereo unspecified), the GI50 in [1], in [17], in assay [2], in assay [3], in assay [5] and in assay [6] was > 100 µM (inactive) throughout. Further, the GI50 in assay [7], in [8], in assay [9], in assay [10], in [11] and in assay [12] was > 100 µM (inactive) each time. The GI50 in [16], in assay [14] and in assay [15] was > 100 µM (inactive) in each case.

On to `CCSc1ncnc2c(C3OC(CO)C(O)C3O)nsc12` (stereo unspecified), for which the GI50 in assay [2], in [3], in assay [4], in assay [5], in [6] and in [7] was > 100 µM (inactive) throughout. Moreover, the GI50 in [8], in assay [9], in assay [10], in assay [11], in assay [16] and in [13] was > 100 µM (inactive) each time. For the same compound, the GI50 in [14] was > 100 µM (inactive).

With `Cc1cc(NC2=NCCO2)c2c(c1C)CCCC2`, the GI50 is 17.2 µM (inactive) in assay [1]; 19 µM (inactive) in [2]; 27.5 µM (inactive) in [3]; 0.906 µM (active) in [4]; 13.9 µM (inactive) in assay [5]; 10.8 µM (inactive) in assay [6]. Moreover, the GI50 was 24 µM (inactive) in assay [8]; 14.4 µM (inactive) in [9]; 12.6 µM (inactive) in assay [10]; 22.2 µM (inactive) in [11]; 11.2 µM (inactive) in [12]; 19.2 µM (inactive) in assay [16]. In addition, the GI50 in [13] is 13.6 µM (inactive); in assay [14], 18.5 µM (inactive); in assay [15] it was 15.2 µM (inactive).

`COc1cc(/C=C2\CCC(C)C3=C2N=c2s/c(=C/c4ccc(Cl)cc4)c(=O)n2C3c2cc(OC)c(OC)c(OC)c2)cc(OC)c1OC` (stereo unspecified): the GI50 in [1], in assay [2], in assay [3], in assay [4], in assay [5] and in assay [6] was > 100 µM (inactive) each time. For the same compound, the GI50 was > 100 µM (inactive) in assay [7]; > 100 µM (inactive) in [8]; > 100 µM (inactive) in [9]; > 100 µM (inactive) in assay [11]; > 100 µM (inactive) in [12]; 0.277 µM (active) in assay [16]. For the same compound, the GI50 in assay [14] and in [15] was > 100 µM (inactive) in each case.

Regarding `O=c1cccc2n1C[C@H]1CNC[C@H]2C1`, the GI50 in assay [1], in assay [17], in [2], in assay [3], in [4] and in assay [5] was > 100 µM (inactive) each time. Moreover, the GI50 in assay [6], in [7], in assay [8], in assay [9], in assay [10] and in assay [11] was > 100 µM (inactive) each time. Moreover, the GI50 in [12], in assay [16], in [14] and in [15] was > 100 µM (inactive) each time.
